Measured values reported in patent US10253039B2, “Inhibitors of bacterial DNA gyrase with efficacy against gram-negative bacteria” (priority 2014, dated 2019).
In brackets after ≈: the same amount, converted by molar mass.

Tested on: E. coli BW25113
Assay: MIC, microdilution in 96-well plates
Assay type: cell-based
Conditions: Escherichia coli, BW25113, B: E. coli BW25113; read-out: MIC
Protocol: (§1) A microdilution method in 96-well plates was used and the MIC protocol established by the Clinical Laboratory Standards Institute was followed. From a growing subculture, a 1:10000 inoculum of each strain in Luria-Bertani media was prepared and aliquoted 100 μL in 4 columns of wells, except for the top row wells, which contained 200 μL of inoculum. A solution of gyramide C2 was aliquoted into 3 of the wells containing 200 μL and DMSO was added to the 4th well. The liquid in each of wells was mixed with a multi-channel pipet and 100 μL was transferred to the next well and mixed. The 2-fold dilution was continued down the 96-well plate until 100 μL was left, which was discarded. The plates were incubated at 37° C. with shaking for 16-18 hours. The MIC was determined as the lowest concentration that inhibited growth and had no turbidity by visual inspection.
(§2) Minimum inhibitory concentrations of various gyramide compounds against 20 strains of bacteria were determined using the procedure described above.

Row | SMILES | MIC [µg/mL]
1 | O=S(=O)(N[C@@H]1CCN(Cc2ccc(OC(F)F)cc2)C1)c1cccc(OC(F)(F)F)c1 [Compound 106] | > 8

Same assay, conditions: Escherichia coli, BW25113, E. coli BW25113; read-out: MIC

Row | SMILES | MIC [µg/mL]
2 | COc1cc(CN2CC[C@@H](NS(=O)(=O)c3cccc(C#N)c3)C2)ccc1OC(C)C [Compound 155] | > 8
3 | CC(C)Oc1ccc(CN2CC[C@@H](NS(=O)(=O)c3ncc[nH]3)C2)cc1 [Compound 136] | > 8
4 | O=S(=O)(N[C@@H]1CCN(Cc2ccn(-c3ccccc3)n2)C1)c1cccc(OC(F)(F)F)c1 [Compound 163] | > 8
5 | CC(C)Oc1ccc(CN2CC[C@@H](NS(=O)(=O)c3ccc4c(c3)CC(=O)N4C)C2)cc1 [Compound 179] | > 8

Tested on: Edwardsiella tarda
Assay: MIC, microdilution in 96-well plates
Assay type: cell-based
Conditions: not given
Protocol: as §1, §2

Row | SMILES | MIC [µg/mL]
6 | COc1cc(CN2CC[C@@H](NS(=O)(=O)c3cccc(C#N)c3)C2)ccc1OC(C)C [Compound 155] | > 8
7 | CC(C)Oc1ccc(CN2CC[C@@H](NS(=O)(=O)c3ncc[nH]3)C2)cc1 [Compound 136] | > 8
8 | O=S(=O)(N[C@@H]1CCN(Cc2ccn(-c3ccccc3)n2)C1)c1cccc(OC(F)(F)F)c1 [Compound 163] | > 8
9 | CC(C)Oc1ccc(CN2CC[C@@H](NS(=O)(=O)c3ccc4c(c3)CC(=O)N4C)C2)cc1 [Compound 179] | > 8

Same assay, conditions: D: Edwardsiella tarda

Row | SMILES | MIC [µg/mL]
10 | O=S(=O)(N[C@@H]1CCN(Cc2ccc(OC(F)F)cc2)C1)c1cccc(OC(F)(F)F)c1 [Compound 106] | > 8

Tested on: Staphylococcus aureus subsp. aureus
Assay: MIC, 20-strain panel
Assay type: cell-based
Conditions: H: Staphylococcus aureus subsp. aureus, read-out: MIC
Protocol: as §1, §2

Row | SMILES | MIC [µg/mL]
11 | O=S(=O)(N[C@@H]1CCN(Cc2ccc(OC(F)F)cc2)C1)c1cccc(OC(F)(F)F)c1 [Compound 106] | > 8

Same assay, conditions: Staphylococcus aureus subsp. aureus, read-out: MIC

Row | SMILES | MIC [µg/mL]
12 | COc1cc(CN2CC[C@@H](NS(=O)(=O)c3cccc(C#N)c3)C2)ccc1OC(C)C [Compound 155] | > 8
13 | CC(C)Oc1ccc(CN2CC[C@@H](NS(=O)(=O)c3ncc[nH]3)C2)cc1 [Compound 136] | > 8
14 | O=S(=O)(N[C@@H]1CCN(Cc2ccn(-c3ccccc3)n2)C1)c1cccc(OC(F)(F)F)c1 [Compound 163] | > 8
15 | CC(C)Oc1ccc(CN2CC[C@@H](NS(=O)(=O)c3ccc4c(c3)CC(=O)N4C)C2)cc1 [Compound 179] | > 8

Tested on: Streptococcus pyogenes
Assay: MIC, 20-strain panel
Assay type: cell-based
Conditions: not given
Protocol: as §1, §2

Row | SMILES | MIC [µg/mL]
16 | COc1cc(CN2CC[C@@H](NS(=O)(=O)c3cccc(C#N)c3)C2)ccc1OC(C)C [Compound 155] | > 8
17 | CC(C)Oc1ccc(CN2CC[C@@H](NS(=O)(=O)c3ncc[nH]3)C2)cc1 [Compound 136] | > 8
18 | O=S(=O)(N[C@@H]1CCN(Cc2ccn(-c3ccccc3)n2)C1)c1cccc(OC(F)(F)F)c1 [Compound 163] | > 8
19 | CC(C)Oc1ccc(CN2CC[C@@H](NS(=O)(=O)c3ccc4c(c3)CC(=O)N4C)C2)cc1 [Compound 179] | > 8
20 | O=S(=O)(N[C@@H]1CCN(Cc2ccc(OC(F)F)cc2)C1)c1cccc(OC(F)(F)F)c1 [Compound 106] | > 8

Tested on: Staphylococcus epidermidis
Assay: MIC, 20-strain panel
Assay type: cell-based
Conditions: not given
Protocol: as §1, §2

Row | SMILES | MIC [µg/mL]
21 | COc1cc(CN2CC[C@@H](NS(=O)(=O)c3cccc(C#N)c3)C2)ccc1OC(C)C [Compound 155] | > 8
22 | CC(C)Oc1ccc(CN2CC[C@@H](NS(=O)(=O)c3ncc[nH]3)C2)cc1 [Compound 136] | > 8
23 | O=S(=O)(N[C@@H]1CCN(Cc2ccn(-c3ccccc3)n2)C1)c1cccc(OC(F)(F)F)c1 [Compound 163] | > 8
24 | CC(C)Oc1ccc(CN2CC[C@@H](NS(=O)(=O)c3ccc4c(c3)CC(=O)N4C)C2)cc1 [Compound 179] | > 8
25 | O=S(=O)(N[C@@H]1CCN(Cc2ccc(OC(F)F)cc2)C1)c1cccc(OC(F)(F)F)c1 [Compound 106] | > 8

Tested on: Staphylococcus saprophyticus subsp. saprophyticus
Assay: MIC, 20-strain panel
Assay type: cell-based
Conditions: not given
Protocol: as §1, §2

Row | SMILES | MIC [µg/mL]
26 | COc1cc(CN2CC[C@@H](NS(=O)(=O)c3cccc(C#N)c3)C2)ccc1OC(C)C [Compound 155] | > 8
27 | CC(C)Oc1ccc(CN2CC[C@@H](NS(=O)(=O)c3ncc[nH]3)C2)cc1 [Compound 136] | > 8
28 | O=S(=O)(N[C@@H]1CCN(Cc2ccn(-c3ccccc3)n2)C1)c1cccc(OC(F)(F)F)c1 [Compound 163] | > 8
29 | CC(C)Oc1ccc(CN2CC[C@@H](NS(=O)(=O)c3ccc4c(c3)CC(=O)N4C)C2)cc1 [Compound 179] | > 8
30 | O=S(=O)(N[C@@H]1CCN(Cc2ccc(OC(F)F)cc2)C1)c1cccc(OC(F)(F)F)c1 [Compound 106] | > 8

Tested on: Shigella flexneri
Assay: MIC, 20-strain panel
Assay type: cell-based
Conditions: not given
Protocol: as §1, §2

Row | SMILES | MIC [µg/mL]
31 | COc1cc(CN2CC[C@@H](NS(=O)(=O)c3cccc(C#N)c3)C2)ccc1OC(C)C [Compound 155] | > 8
32 | CC(C)Oc1ccc(CN2CC[C@@H](NS(=O)(=O)c3ncc[nH]3)C2)cc1 [Compound 136] | > 8
33 | O=S(=O)(N[C@@H]1CCN(Cc2ccn(-c3ccccc3)n2)C1)c1cccc(OC(F)(F)F)c1 [Compound 163] | > 8
34 | CC(C)Oc1ccc(CN2CC[C@@H](NS(=O)(=O)c3ccc4c(c3)CC(=O)N4C)C2)cc1 [Compound 179] | > 8

Same assay, conditions: G: Shigella flexneri

Row | SMILES | MIC [µg/mL]
35 | O=S(=O)(N[C@@H]1CCN(Cc2ccc(OC(F)F)cc2)C1)c1cccc(OC(F)(F)F)c1 [Compound 106] | > 8

Tested on: Streptococcus agalactiae
Assay: MIC, 20-strain panel
Assay type: cell-based
Conditions: not given
Protocol: as §1, §2

Row | SMILES | MIC [µg/mL]
36 | COc1cc(CN2CC[C@@H](NS(=O)(=O)c3cccc(C#N)c3)C2)ccc1OC(C)C [Compound 155] | > 8
37 | CC(C)Oc1ccc(CN2CC[C@@H](NS(=O)(=O)c3ncc[nH]3)C2)cc1 [Compound 136] | > 8
38 | O=S(=O)(N[C@@H]1CCN(Cc2ccn(-c3ccccc3)n2)C1)c1cccc(OC(F)(F)F)c1 [Compound 163] | > 8
39 | CC(C)Oc1ccc(CN2CC[C@@H](NS(=O)(=O)c3ccc4c(c3)CC(=O)N4C)C2)cc1 [Compound 179] | > 8
40 | O=S(=O)(N[C@@H]1CCN(Cc2ccc(OC(F)F)cc2)C1)c1cccc(OC(F)(F)F)c1 [Compound 106] | > 8

Tested on: Klebsiella pneumoniae subsp. pneumoniae
Assay: MIC, 20-strain panel
Assay type: cell-based
Conditions: E: Klebsiella pneumoniae subsp. pneumoniae
Protocol: as §1, §2

Row | SMILES | MIC [µg/mL]
41 | O=S(=O)(N[C@@H]1CCN(Cc2ccc(OC(F)F)cc2)C1)c1cccc(OC(F)(F)F)c1 [Compound 106] | > 8

Same assay, conditions: Klebsiella pneumoniae subsp. pneumoniae

Row | SMILES | MIC [µg/mL]
42 | COc1cc(CN2CC[C@@H](NS(=O)(=O)c3cccc(C#N)c3)C2)ccc1OC(C)C [Compound 155] | > 8
43 | CC(C)Oc1ccc(CN2CC[C@@H](NS(=O)(=O)c3ncc[nH]3)C2)cc1 [Compound 136] | > 8
44 | O=S(=O)(N[C@@H]1CCN(Cc2ccn(-c3ccccc3)n2)C1)c1cccc(OC(F)(F)F)c1 [Compound 163] | > 8
45 | CC(C)Oc1ccc(CN2CC[C@@H](NS(=O)(=O)c3ccc4c(c3)CC(=O)N4C)C2)cc1 [Compound 179] | > 8

Tested on: E. coli JW5503 (deltolC)
Assay: MIC, 20-strain panel
Assay type: cell-based
Conditions: Escherichia coli, C: E. coli JW5503 (deltolC)
Protocol: as §1, §2

Row | SMILES | MIC [µg/mL]
46 | O=S(=O)(N[C@@H]1CCN(Cc2ccc(OC(F)F)cc2)C1)c1cccc(OC(F)(F)F)c1 [Compound 106] | > 8

Same assay, conditions: Escherichia coli, E. coli JW5503 (deltolC)

Row | SMILES | MIC [µg/mL]
47 | COc1cc(CN2CC[C@@H](NS(=O)(=O)c3cccc(C#N)c3)C2)ccc1OC(C)C [Compound 155] | > 8
48 | CC(C)Oc1ccc(CN2CC[C@@H](NS(=O)(=O)c3ncc[nH]3)C2)cc1 [Compound 136] | ~8 (≈ 21.9 µM)
49 | O=S(=O)(N[C@@H]1CCN(Cc2ccn(-c3ccccc3)n2)C1)c1cccc(OC(F)(F)F)c1 [Compound 163] | > 8
50 | CC(C)Oc1ccc(CN2CC[C@@H](NS(=O)(=O)c3ccc4c(c3)CC(=O)N4C)C2)cc1 [Compound 179] | > 8

Tested on: Salmonella enterica subsp. enterica typhimurium
Assay: MIC, 20-strain panel
Assay type: cell-based
Conditions: F: Salmonella enterica subsp. enterica Typhimurium
Protocol: as §1, §2

Row | SMILES | MIC [µg/mL]
51 | O=S(=O)(N[C@@H]1CCN(Cc2ccc(OC(F)F)cc2)C1)c1cccc(OC(F)(F)F)c1 [Compound 106] | > 8

Same assay, conditions: Salmonella enterica subsp. enterica Typhimurium

Row | SMILES | MIC [µg/mL]
52 | COc1cc(CN2CC[C@@H](NS(=O)(=O)c3cccc(C#N)c3)C2)ccc1OC(C)C [Compound 155] | > 8
53 | CC(C)Oc1ccc(CN2CC[C@@H](NS(=O)(=O)c3ncc[nH]3)C2)cc1 [Compound 136] | > 8
54 | O=S(=O)(N[C@@H]1CCN(Cc2ccn(-c3ccccc3)n2)C1)c1cccc(OC(F)(F)F)c1 [Compound 163] | > 8
55 | CC(C)Oc1ccc(CN2CC[C@@H](NS(=O)(=O)c3ccc4c(c3)CC(=O)N4C)C2)cc1 [Compound 179] | > 8

Tested on: E. coli MG1655
Assay: MIC, 20-strain panel
Assay type: cell-based
Conditions: Escherichia coli, MG1655, A: E. coli MG1655; read-out: MIC
Protocol: as §1, §2

Row | SMILES | MIC [µg/mL]
56 | O=S(=O)(N[C@@H]1CCN(Cc2ccc(OC(F)F)cc2)C1)c1cccc(OC(F)(F)F)c1 [Compound 106] | > 8

Same assay, conditions: Escherichia coli, MG1655, E. coli MG1655; read-out: MIC

Row | SMILES | MIC [µg/mL]
57 | COc1cc(CN2CC[C@@H](NS(=O)(=O)c3cccc(C#N)c3)C2)ccc1OC(C)C [Compound 155] | > 8
58 | CC(C)Oc1ccc(CN2CC[C@@H](NS(=O)(=O)c3ncc[nH]3)C2)cc1 [Compound 136] | > 8
59 | O=S(=O)(N[C@@H]1CCN(Cc2ccn(-c3ccccc3)n2)C1)c1cccc(OC(F)(F)F)c1 [Compound 163] | > 8
60 | CC(C)Oc1ccc(CN2CC[C@@H](NS(=O)(=O)c3ccc4c(c3)CC(=O)N4C)C2)cc1 [Compound 179] | > 8
